As a reminder, the IC50 is the concentration that inhibits the measured activity by half.

Results on two molecules are retold here after patent US20210206763A1, “Anti-Proliferative Agents” (FEMTOGENIX LIMITED, priority 2015, published 2021).

Assay type in all cases: cell-based
The test system of experiment [1] is SK-BR-3 (HER2+++). Nature of the experiment: In vitro cytotoxicity of ADCs. The following applies: Homo sapiens, 72 hour incubation. On the procedure:
(§1) The resulting ADCs were evaluated in vitro against relevant antigen positive cell-lines.

Experiment [2] has as its system MCF-7 (HER2−). Nature of the experiment: In vitro cytotoxicity of ADCs. The following applies: Homo sapiens, MCF7; 72 hour incubation. On the procedure:
as §1

Experiment [3] concerns ZR75-1 (HER2++) (Trastuzumab resistant). Description: In vitro cytotoxicity of ADCs. The following applies: Homo sapiens, ZR-75-1; 72 hour incubation. As for the experimental part:
as §1

Experiment [4] deals with 786-O (Renal Cell, CD70). Nature of the experiment: In vitro cytotoxicity of 41, cancer cell-line panel. The conditions noted are these: Homo sapiens, 786-0; 72 hour incubation. As for the experimental part: (§2) Tumor cell lines were maintained in RPMI1640 medium supplemented with 10% heat-inactivated fetal bovine serum, 2 mM L-glutamine and 1 mM sodium pyruvate. 1800 cells per well were seeded in a volume of 180 μl in a 96-well flat bottom polystyrene plate. The cells were allowed to adhere overnight at 37° C. in a CO2 incubator. Ligands were initially formulated in DMSO, and stocks stored at −80° C. They were then further formulated at lox concentration in RPMI1640 medium. 20 ul of diluted samples were added into each treatment well. On each plate, blank wells with no cells, and untreated wells containing cells, were included. Plates were then cultured at 37° C. in a CO2 incubator for 72 hrs. Cytotoxicity was evaluated using a tetrazolium salt-based assay, the MIT assay. After 72 hours, the supernatant was removed from each well and 200 μl of a sterile filtered 500 μg/ml MTT solution in water added to each well. The plates were then incubated at 37° C. in a CO2 incubator for 4 hrs. The supernatant was then removed and the formazan crystals formed solubilized by adding 15(411 of DMSO to each well. The plate was then read on a plate reader at 540 nm, and percentage cell survival calculated as follows: ((mean absorbance treated wells at concentration x−mean absorbance blank wells)÷(mean absorbance untreated wells at concentration x−mean absorbance blank wells))×100. Data were plotted as concentration in nM vs. % cell survival in Microsoft Excel, and IC50 values (concentration where cell survival is reduced by a half) were determined from the graph.

In experiment [5] the test system is AGS (Gastric). Described as above. The following applies: 72 hour incubation. As for the experimental part:
as §2

Experiment [6] relates to BxPC3 (Pancreas). Described as above. The following applies: Homo sapiens, BXPC-3; 72 hour incubation. As for the experimental part:
as §2

Experiment [7] deals with EC Cancer Stem Cell (Cancer stem cells). Described as above. The following applies: 72 hour incubation. On the procedure:
as §2

Experiment [8] deals with A375 (Skin). The experiment is described as above. The conditions noted are these: Homo sapiens, A-375; 72 hour incubation. As for the experimental part:
as §2

For experiment [9], the system named is LnCap (Prostate). Described as above. The following applies: Homo sapiens, 72 hour incubation. On the procedure: as §2
Experiment [10] deals with A549 (Lung). The experiment is described as above. The following applies: Homo sapiens, 72 hour incubation. On the procedure: as §2
Experiment [11] deals with SK-MEL-5 (Melanoma). The experiment is described as above. The following applies: Homo sapiens, 72 hour incubation. As for the experimental part:
as §2

Experiment [12] relates to HL60 (APML). The experiment is described as above. The following applies: Homo sapiens, HL-60; 72 hour incubation. As for the experimental part: as §2
Experiment [13] deals with Calu-3 (Lung). The experiment is described as above. The conditions noted are these: Homo sapiens, 72 hour incubation. As for the experimental part:
as §2

The subject of experiment [14] is SK-HEP-1 (Liver). Described as above. The conditions noted are these: Homo sapiens, SK-HEP1; 72 hour incubation. On the procedure:
as §2

Experiment [15] has as its system SW480 (Colorectal). The experiment is described as above. The following applies: Homo sapiens, 72 hour incubation. On the procedure:
as §2

Experiment [16] deals with AML2 (AML). Described as above. The conditions noted are these: 72 hour incubation. As for the experimental part: as §2
The test system of experiment [17] is PC3 (Prostate). The description is as above. The conditions noted are these: 72 hour incubation. As for the experimental part: as §2

On to `COc1cc2c(cc1OCCCC(=O)Nc1cc(C(=O)Nc3ccc(-c4cc(C(=O)Nc5ccc(N)cc5)n(C)c4)cc3)n(C)c1)N=C[C@@H]1CCCCN1C2=O` [Compound 41, (S)—N-(4-aminophenyl)-4-(4-(4-(4-((2-methoxy-12-oxo-6a,7,8,9,10,12-hexahydrobenzo[e]pyrido[1,2-a][1,4]diazepin-3-yl)oxy)butanamido)-1-methyl-1H-pyrrole-2-carboxamido)phenyl)-1-methyl-1H-pyrrole-2-carboxamide], for which the IC50 in experiment [1] was 0.086 nM; in experiment [2] it was 0.289 nM; in experiment [3], 0.63 nM.
In the case of `COc1cc2c(cc1OCCCC(=O)Nc1cc(C(=O)Nc3ccc(-c4cc(C(=O)Nc5ccc(N)cc5)n(C)c4)cc3)n(C)c1)N=C[C@@H]1CCCCN1C2=O` [Compound 41], the IC50 amounted to 0.53 nM in experiment [4]; 0.07 nM in [5]; 0.43 nM in experiment [6]; 2.64 nM in experiment [7]; 0.28 nM in [8]; 0.47 nM in experiment [9]. The IC50 in experiment [10] is 0.18 nM; in experiment [11], 0.39 nM; in [12] it was 9 pM; in [13] it was 0.65 nM; in [14], 0.32 nM; in experiment [15], 0.29 nM. Also, the IC50 in experiment [16] was 0.016 nM; in experiment [17], 0.36 nM.
